Test results reported in patent US20260217776A1, “COMPOUND WITH ANTITUMOR ACTIVITY, COR[…] AND COR[…]” (priority 2023, published 2026).
Read-outs that look alike come from different tables or passages of the source. Bridge positions count the residues as written; N and C are the ends. Peptide text beside a SMILES is read from it.

Experiments:
[1] = tested on: KB31 human epidermoid carcinoma cell line; settings: for cell viability: KB31 line, peptide 150 μM, untreated 100%
Experimental: (§1) The cytotoxic activity assays were performed using a […] human epidermoid carcinoma cell line (American Type Culture Collection) and, as control, non-tumor cell lines of normal dermal fibroblasts (NDFa) and immortalized human keratinocytes (HACAT).
(§2) The used cells were placed in culture dishes (Corning®) and treated with the peptide (at a concentration of 150 μM) for 1 day and 6 days. In parallel, the same lines were prepared, without being treated with the peptide, as a negative control.
(§3) The analyzes were performed with a resazurin-based cytotoxicity assay (Sigma Aldrich) and a trypan blue exclusion assay.

in vitro = assay: in vitro
Experimental: as §1, §2, §3

[2] = tested on: KB31 human epidermoid carcinoma cell line; assay: apoptotic activity assay (BD cell viability kit); type: cell-based; settings: peptide 150 μM
Experimental: (§4) The same cell lines were used to verify the apoptotic activity of the peptide, providing the same treatment and the same negative controls. The percentage of apoptotic cells was determined using a BD™ cell viability kit (BD Biosciences), following the manufacturer's instructions. The results are expressed as average values in percentages taking into account the standard error of the mean (SEM).

[3] = tested on: immortalized human keratinocytes (HACAT); assay: apoptotic activity assay (BD cell viability kit); type: cell-based; settings: HACAT line, peptide 150 μM
Experimental: as §4

[4] = tested on: normal dermal fibroblasts (NDFa); assay: apoptotic activity assay (BD cell viability kit); type: cell-based; settings: NDFa line, peptide 150 μM
Experimental: as §4

[5] = human, immortalized keratinocytes (HACAT)
[6] = normal dermal fibroblasts (NDFa)

## CC(C)C[C@@H]1NC(=O)[C@H](CC(=O)O)NC(=O)[C@H](CC(N)=O)NC(=O)[C@H](CCCCN)NC(=O)[C@H](CCCNC(=N)N)NC(=O)CNC(=O)[C@H](CCC(=O)O)NC(=O)[C@H](Cc2c[nH]cn2)NC(=O)CNC(=O)[C@H](CCCNC(=N)N)NC(=O)[C@H](CCC(=O)O)NC(=O)[C@H](CO)NC(=O)[C@H](CC(C)C)NC(=O)[C@H]([C@@H](C)O)NC(=O)[C@H](CC(C)C)NC(=O)[C@H](CC(C)C)NC(=O)[C@@H]2CCCN2C(=O)[C@@H](NC(=O)[C@@H](N)CO)CSSC[C@@H](C(=O)N[C@@H](CCCNC(=N)N)C(=O)O)NC(=O)[C@H](CCC(=O)O)NC(=O)[C@H](C(C)C)NC(=O)[C@H](CCCCN)NC(=O)[C@H](CCCCN)NC1=O [peptide] (H-SCPLLTLSERGHEGRKNDLKKVECR-OH; disulfide 2-24; N-terminus assumed)
[1]; 1 day
  cell viability: 77%
[1]; 6 days
  cell viability: approximately 45%
[1]; KB31 tumor cells versus non-tumor NDFa and HACAT, cytotoxic and apoptotic assays
  selectivity toward tumor cells: good selectivity toward tumor cells
In vitro; [5]
  viability at 1 day, 150 μM: ~85%
  viability at 6 days, 150 μM: ~85%
In vitro; [6]
  viability at 1 day, 150 μM: ~80%
  viability at 6 days, 150 μM: ~80%
[2]; 1 day
  apoptosis (percentage of apoptotic cells): less than 5%
[2]; 6 days, negative control just over 10%
  apoptosis (percentage of apoptotic cells): more than 50%
[3]; 1 day
  apoptosis (percentage of apoptotic cells): less than 5%
[3]; 6 days
  apoptosis (percentage of apoptotic cells): less than 5%
[4]; 1 day
  apoptosis (percentage of apoptotic cells): less than 5%
[4]; 6 days
  apoptosis (percentage of apoptotic cells): less than 5%
